The target of assay [1] is 5-hydroxytryptamine receptor 6 (Mus musculus, UniProt Q9R1C8).
For assay [2], the target named is 5-hydroxytryptamine receptor 6 (Homo sapiens, UniProt P50406).
In assay [3] the target is 5-hydroxytryptamine receptor 6 (Rattus norvegicus, UniProt P31388).

Each structure is given as a SMILES string. Counter-ions that a name gives are not always drawn.

5-hydroxytryptamine receptor 6 (Homo sapiens, UniProt P50406), sequence (P50406 whole entry): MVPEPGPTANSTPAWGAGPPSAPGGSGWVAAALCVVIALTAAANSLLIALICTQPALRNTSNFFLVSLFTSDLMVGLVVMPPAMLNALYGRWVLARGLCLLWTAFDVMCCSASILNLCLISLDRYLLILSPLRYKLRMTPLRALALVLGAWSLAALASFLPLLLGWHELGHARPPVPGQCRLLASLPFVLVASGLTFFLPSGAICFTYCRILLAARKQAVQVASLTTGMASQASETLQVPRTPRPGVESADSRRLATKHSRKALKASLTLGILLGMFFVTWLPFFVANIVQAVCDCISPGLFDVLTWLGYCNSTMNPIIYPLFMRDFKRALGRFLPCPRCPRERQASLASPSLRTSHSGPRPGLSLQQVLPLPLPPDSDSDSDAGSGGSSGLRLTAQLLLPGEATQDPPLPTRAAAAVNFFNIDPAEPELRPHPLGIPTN
5-hydroxytryptamine receptor 6 (Mus musculus, UniProt Q9R1C8), sequence (Q9R1C8 whole entry): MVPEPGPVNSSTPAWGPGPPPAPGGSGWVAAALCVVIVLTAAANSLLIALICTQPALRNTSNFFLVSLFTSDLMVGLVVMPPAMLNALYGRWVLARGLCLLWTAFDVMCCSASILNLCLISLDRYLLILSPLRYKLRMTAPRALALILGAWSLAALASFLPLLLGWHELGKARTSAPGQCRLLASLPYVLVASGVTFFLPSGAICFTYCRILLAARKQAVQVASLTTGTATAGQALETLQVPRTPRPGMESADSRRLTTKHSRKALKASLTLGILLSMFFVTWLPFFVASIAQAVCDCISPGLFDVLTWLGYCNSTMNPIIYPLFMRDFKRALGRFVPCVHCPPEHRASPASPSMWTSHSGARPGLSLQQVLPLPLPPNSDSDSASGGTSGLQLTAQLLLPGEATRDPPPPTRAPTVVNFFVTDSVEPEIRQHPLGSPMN
5-hydroxytryptamine receptor 6 (Rattus norvegicus, UniProt P31388), sequence (P31388 whole entry): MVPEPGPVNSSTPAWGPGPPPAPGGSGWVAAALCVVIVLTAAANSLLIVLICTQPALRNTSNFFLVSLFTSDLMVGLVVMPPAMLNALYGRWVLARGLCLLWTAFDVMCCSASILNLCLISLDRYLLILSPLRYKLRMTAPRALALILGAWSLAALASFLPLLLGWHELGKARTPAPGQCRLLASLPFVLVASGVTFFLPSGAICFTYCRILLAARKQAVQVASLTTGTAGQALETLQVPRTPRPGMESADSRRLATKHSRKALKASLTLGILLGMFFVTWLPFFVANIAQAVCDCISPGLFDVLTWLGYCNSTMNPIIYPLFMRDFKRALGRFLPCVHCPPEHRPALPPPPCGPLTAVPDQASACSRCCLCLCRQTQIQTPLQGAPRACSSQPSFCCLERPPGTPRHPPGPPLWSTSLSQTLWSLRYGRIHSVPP

The Ki is a measure of affinity in units of concentration, obtained from inhibition or displacement. A higher Ki goes with weaker binding. With `CSc1ccc2c(c1)C(N1CCN(C)CC1)Cc1ccccc1S2` (stereo not drawn) [methanesulfonic acid;1-methyl-4-(3-methylsulfanyl-5,6-dihydrobenzo[b][1]benzothiepin-5-yl)piperazine], in assay [1], the affinity, expressed as Ki, was 0.56 nM.
As for `CN(C)CCC=C1c2ccccc2CCc2ccccc21`, the Ki in assay [2] was 141 nM; in assay [1] it was 89.1 nM; in assay [3] it was 182 nM.
Compound `CN1CCN2c3ccccc3Cc3ccccc3C2C1` (stereo not drawn) [MIANSERIN HYDROCHLORIDE] registered an inhibitory constant (Ki) in assay [1] of 3.24 nM.
As for `COc1ccc(NS(=O)(=O)c2ccc(Br)cc2)cc1N1CCN(C)CC1`, the Ki in assay [2] came out at 2.82 nM; in assay [1], 22.9 nM; in assay [3] it was 4.79 nM.
Take `COc1ccc(NS(=O)(=O)c2sc3ccc(Cl)cc3c2C)cc1N1CCN(C)CC1` [SB-258510]: the Ki in assay [1] is 1 nM; in assay [3], 0.76 nM.
On to `CN1CCN(C2=c3ccccc3=Nc3ccc(Cl)cc3N2)CC1` [6-chloro-10-(4-methylpiperazin-1-yl)-2,9-diazatricyclo[9.4.0.0^{3,8}]pentadeca-1,3(8),4,6,10,12,14-heptaene], for which affinity in assay [1] was put at a Ki of 6.46 nM.
In the case of `NCCc1c[nH]c2ccc(O)cc12` [[3H]-5-HT], the Ki in assay [1] came to 95.5 nM; in assay [3], 79.4 nM.
On to `COc1ccc2[nH]cc(CCN)c2c1` [tryptamine, 5-Methoxy], for which the affinity in assay [3], expressed as Ki, was 22.4 nM.
With `CCN(CC)C(=O)C1C=C2c3cccc4[nH]cc(c34)CC2N(C)C1` (stereo not drawn) [NSC_3981], the Ki in assay [1] worked out at 2.82 nM; in assay [3], 2.63 nM.
For `COc1ccc(S(=O)(=O)Nc2cc(Br)cc(F)c2Br)cc1N1CCNCC1` [N-(2,5-dibromo-3-fluorophenyl)-4-methoxy-3-(piperazin-1-yl)benzenesulfonamide] the same measures were 61.7 nM and 1.41 nM.
For the compound `CNc1cc(NS(=O)(=O)c2ccc(N)cc2)nc(NC)n1` [Ro-04-6790], the Ki was 51.3 nM in assay [2], over 10000 nM in assay [1] and 28.8 nM in assay [3].
For `CNS(=O)(=O)Cc1ccc2[nH]cc(CCN(C)C)c2c1` [Sumax] the same measures were over 10000 nM, 5620 nM and over 10000 nM.
Take `COc1ccc(NS(=O)(=O)c2sc3ccc(Cl)cc3c2C)cc1N1CCNCC1`: the Ki was determined as 1.23 nM in assay [1] and 0.71 nM in assay [3].
The like results for `COc1ccc(NS(=O)(=O)c2ccc(I)cc2)cc1N1CCN(C)CC1` [SB-258585] were, in that order, 11.2 nM and 2.29 nM.

Values taken from BindingDB's records for doi:10.1124/mol.64.6.1295 (Glaxosmithkline, 2003).
